Reference: patent US3937830A, “5-Pivaloyloxy-5-(1-phenylethyl) barbituric acid, analgetic composition and method based thereon” (The Kendall Company, priority 1974, dated 1976)
Like-named read-outs stand apart in the source and are kept apart here.

Assays:
[1] = Therapeutic index (LD50 divided by ED50); design: species or system adult albino male mice (Charles River strain); details: mouse, in vivo; oral LD50 / oral hot-plate ED50, mice
Procedure: By therapeutic index is meant the LD50 of a compound divided by its ED50, or the dose required to kill one-half of the test animals divided by the dose required to produce the desired therapeutic effect in one-half of the test animals. It will be apparent that the larger the therapeutic index, the greater the margin of safety and the more desirable the drug.
(§1) All tests were conducted on adult albino male mice (Charles River strain); the dosage consisted of the active agent suspended in 10% aqueous acacia and was administered orally and/or subcutaneously as indicated.
(§2) Acute oral toxicity was determined in the conventional manner. The results were expressed as LD50, the dose required to produce death in 50% of the animals treated, determined graphically, with the 95% limits shown in parentheses.
Two established procedures were employed to determine analgetic activity. The method described by Eddy, N. B., and Leimbach, D., J. Pharmacol. Exptl. Therap. 107, 385 (1953) was followed, with the following modifications, in the first procedure. Mice are pretested by placing them individually on the cleaned surface of a copper water bath, the temperature of which is maintained at 54°-55°C. The reaction time of this noxious thermal stimulus is the time in seconds required for either licking of the paws or jumping, such that all four paws leave the surface of the plate. […]

[2] = Phenyl-p-quinone writhing (Siegmund); type: in vivo, adult albino male mice (Charles River strain); details: oral, mice, not dose-related
Procedure: as §1
In the second procedure, the method of Siegmund, E., et al. reported in Proc. Soc. Exptl. Biol. and Med. 95, 729, (1957) was generally followed. The method is based on the antagonism by both non-narcotic and narcotic analgetics of a syndrome induced in mice following intraperitoneal injection of phenyl-p-quinone. The syndrome is characterized by intermittent contractions of the abdomen, twisting and turning of the trunk, and extension of the hind legs, beginning 3 to 10 minutes after the injection and persisting for more than one hour. The test drug is administered orally at four to five dosage levels. At the time of peak activity, 0.25 ml. of a 0.02 per cent solution of phenyl-p-quinone in 5 per cent (aqueous) ethyl alcohol is injected intraperitoneally. Inhibition of the syndrome is considered an analgetic response.

[3] = Acute oral toxicity in mice; design: species or system adult albino male mice (Charles River strain); details: mouse, in vivo, 95% limits in parentheses
Procedure: as §1, §2

[4] = Hot-plate analgetic activity (Eddy and Leimbach, modified); type: in vivo, adult albino male mice (Charles River strain); details: for ED50: Mus musculus, mice
Procedure: as §1
Two established procedures were employed to determine analgetic activity. The method described by Eddy, N. B., and Leimbach, D., J. Pharmacol. Exptl. Therap. 107, 385 (1953) was followed, with the following modifications, in the first procedure. Mice are pretested by placing them individually on the cleaned surface of a copper water bath, the temperature of which is maintained at 54°-55°C. The reaction time of this noxious thermal stimulus is the time in seconds required for either licking of the paws or jumping, such that all four paws leave the surface of the plate. The drug is then administered orally or subcutaneously, generally at five dosage levels, (10 mice per dosage level) and the reaction times are redetermined at intervals of 1/2 hour, 1 hour, and 2 hours; the time of peak activity is the time at which the greatest number of animals is protected. From the pretreatment reaction times the mean and standard deviations are computed. The cut-off time is taken to be the mean reaction time plus 2 standard deviation units. Reaction times equal to or exceeding this cut-off time are considered to represent analgetic responses. The dosage required to produce an analgetic response in 50% of the animals (ED50 and 95% limits) is computed graphically.

**Q.** What does the source list for CC(c1ccccc1)C1(OC(=O)C(C)(C)C)C(=O)NC(=O)NC1=O (centres unmarked) [5-pivaloyloxy-5-(1-phenylethyl) barbituric acid]?
**A.** selectivity ratio [1]: > 230; Phenyl-p-quinone Writhing, % active ([2]; 100 mg/kg): 26%; Phenyl-p-quinone Writhing, % active ([2]; 200 mg/kg): 30%; Phenyl-p-quinone Writhing, % active ([2]; 400 mg/kg): 10%; LD50 [3]: 690 mg/kg; ED50 ([4]; sc, subcutaneous, not dose-related, read-out: Hot-Plate ED50 (subcutaneous)): 40 to 80 mg/kg; ED50 ([4]; oral, read-out: Hot-Plate ED50 (oral)): < 3.1 mg/kg; Time of Peak Activity ([4]; time at which the greatest number of animals is protected): 1/2
